# According to patent US20180078615A1, “USE OF CCL2 TO INHIBIT ABNORMAL UTERINE BLEEDING” (UNIVERSITY OF SOUTH FLORIDA, priority 2015, published 2018):
# Entries after “also recorded” stand apart in the source; their conditions may differ.
# Columns and labels:
# VSMCs = assay: qRT-PCR of H19, TMEM119, RARRES1 and CCL2 mRNA in cultured VSMCs; type: cell-based, human; conditions: vs control
# Description: (§1) VSMCs were thawed and cultured in medium 231 (M231; Life Technologies) with smooth muscle growth supplement (5% FBS; 2 ng/mL human basic fibroblast growth factor, 0.5 ng/mL human epidermal growth factor, 5 ng/mL heparin, 0.2 μg/mL insulin and 5 μg/mL BSA; Life Technologies) with 100 U/mL penicillin, 100 μg/mL streptomycin, 0.25 μg/mL fungizone. Confluent VSMCs were washed twice with 1×PBS to remove residual serum, passaged in 96-well or 6-well plates and incubated in parallel in M231 with 1% charcoal striped FBS with 0.1% ethanol (vehicle, control) or 10^−7 M MPA (Sigma-Aldrich) or 10^−7 M ETO (Organon) or 10^−7 M P4 (Sigma-Aldrich) for 15 min, 6, 48, and 72 h. VSMCs were then washed with ice-cold PBS and stored at −80° C. for further RNA and protein analyses.
# For qRT-PCR, 500 ng total RNA from each treatment was reverse transcribed by using RETROscript kit (Ambion). qRT-PCR was performed using the TaqMan Gene Expression Assay Kits for H19, TMEM119, RARRES1, and CCL2 (TaqMan ID # Hs00262142_g1, Hs01938722_m1, Hs00161204_m1 and Hs00234140_m1, respectively; Life Technologies) as described previously (36). Expression of the target mRNAs was normalized to β-actin levels, and the 2^−ΔΔCT was used to calculate relative expression levels.
# STAT1 = assay: Western blot of total and phosphorylated STAT1 in VSMCs; type: cell-based, human; conditions: VSMCs treated for 15 min, vs control
# Description: as §1
# To confirm inhibition of STAT1 signaling in LAPC-treated VSMCs, detected by IPA, cell lysates from VSMCs were run in 10% Tris-HCl gel (Bio-Rad). Transfer onto membrane, blocking, washing, chemiluminescence development, and stripping/reprobing were performed as described previously (35). The membrane was incubated with antitotal STAT1 or antiphospho-STAT1 rabbit monoclonal antibodies (Cell Signaling) and then with peroxidase-conjugated goat anti-rabbit IgG (Vector Labs). Signals were developed by a chemiluminescence kit (GE Healthcare).
# endometrial VSMCs = assay: αSMA and PCNA double-immunostaining of endometrium of oophorectomized guinea pigs (OVX-GPs); type: in vivo, guinea pig; conditions: 21-d time-release pellets, mean±SEM
# Description: After receiving written informed consent at New York University under Institutional Review Board approval, paraffin sections were derived from banked paired endometrial tissues obtained before and after Depo therapy by […] biopsy from each reproductive age woman with regular menstrual cycles during the secretory phase (n=6). Based on an established animal model for LAPC-induced AUB in humans (9), nulliparous adult female pigmented GPs (weighing 525-775 g) were used in experimental procedures conforming to National Health and Medical Research Council Guidelines of Australia and approved by the Animal Ethics Committee of The University of Western Australia. GPs (n=24) were subjected to bilateral OVX and given subcutaneous 21-d time-release pellets (Innovative Research of America) containing MPA (50 mg/d; n=6) or 17β-Estradiol (E2) (0.1 mg/d; n=6), both MPA and E2 (n=6), or no pellets (n=6). On day 20 of exposure to the pellets, GPs were killed with pentobarbital and uterine tissues fixed in 10% formalin and processed for paraffin embedding. In vitro experiments used aortic VSMCs from premenopausal women (n=2) (Life Technologies). Paraffin sections (5 μm) from paired pre- vs. post-Depo treated human or GP endometria were deparaffinized, boiled in citrate buffer (pH: 6.0) and then incubated in methanol containing 3% H2O2. Following 10% normal horse serum blocking (Vector Labs), slides were incubated overnight at 4° C. with mouse anti-PCNA monoclonal antibody (EMD Millipore). After several rinses in Tris-buffered saline containing 0.1% tween-20 (TBS-T; pH 7.6) slides were then incubated with biotinylated anti-mouse IgG (Vector Labs) for 30 min, then with a streptavidin-peroxidase complex (Elite ABC kit; Vector Labs) for 30 min and with diaminobenzidine (DAB; Vector Labs) for 3 min. […] Slides were counterstained by Hematoxylin and evaluated by histological scoring (HSCORE), as described previously (34). (See details for HSCORE evaluation for αSMA immunoreactivity and PCNA quantitation in SI Materials and Methods). Staining intensity for α-SMA was semiquantitatively evaluated by Q:1 HSCORE (1). […] An HSCORE value was determined for each specimen by using the formula HSCORE=ΣPi (i+1), where Pi is the percentage of stained cells in each intensity category (i.e., i=1, 2, or 3). Quantitation of PCNA immunostaining was determined by counting the number of PCNA^+ (brown) and PCNA^- cell nuclei (blue) in VSMCs (αSMA immunostained cells) and obtaining the ratio of numbers of PCNA^+ cell nuclei to total αSMA^+ cells. For each slide, three different fields were evaluated microscopically at 200× magnification. Slides were evaluated at different times by two investigators blinded to tissue source, and the average HSCORE or percentage of cells with PCNA^+ nuclei to total αSMA^+ cells used.
Structure (SMILES),CCL2 mRNA levels (VSMCs),H19 mRNA (VSMCs),RARRES1 mRNA (VSMCs),TMEM119 mRNA (VSMCs),CCL2 mRNA levels (VSMCs; listed as WA),phosphorylated levels of STAT1 (STAT1),total STAT1 levels (STAT1),"PCNA+ endometrial VSMCs (endometrial VSMCs; n=6, control 11.2%±2.3)","αSMA HSCORE (endometrial VSMCs; n=6, control 135.2±26.0)"
"CC(=O)O[C@]1(C(C)=O)CC[C@H]2[C@@H]3C[C@H](C)C4=CC(=O)CC[C@]4(C)[C@H]3CC[C@@]21C [MPA, medroxyprogesterone acetate]",significant inhibition,up-regulated,down-regulated,up-regulated,down-regulated,partially reduced,not,10.2%±2.8,83.50±9.0
"C#C[C@]1(O)CC[C@H]2[C@@H]3CCC4=CC(=O)CC[C@@H]4[C@H]3C(=C)C[C@@]21CC [ETO, etonogestrel]",down-regulated; also recorded: significant inhibition,up-regulated,down-regulated,up-regulated,,partially reduced,not,,
